From patent publication US7208485B2, “Crystalline forms of halobetasol propionate” (Chemagis Ltd., priority 2003, dated 2007)

Assay: Thermal solid-state stability / phase transition on heating (hot-stage microscopy, DSC)
Assay type: physicochemical
Conditions: for temperature of solid-solid phase transition upon heating: heating at ambient pressure, observed by hot-stage microscopy and as DSC peak
Protocol: Differential scanning calorimetry experiments were run on DuPont instruments model DSC 910, with software version 4.1C. Samples were analyzed inside 40 μl crimped Aluminum pan. Heating rate for all samples was 5° C./min. Since the melting of halobetasol propionate is accompanied by decomposition, the heating process was stopped slightly after the beginning of melting, in order to avoid damage to the measuring apparatus caused by decomposition products.

Compound	temperature of solid-solid phase transition upon heating	other results
CCC(=O)O[C@]1(C(=O)CCl)[C@@H](C)CC2[C@@H]3C[C@H](F)C4=CC(=O)C=C[C@]4(C)[C@@]3(F)[C@@H](O)C[C@@]21C (some centres unmarked) [Form I, halobetasol propionate Form I]	90 °C	–
CCC(=O)O[C@]1(C(=O)CCl)[C@@H](C)CC2[C@@H]3C[C@H](F)C4=CC(=O)C=C[C@]4(C)[C@@]3(F)[C@@H](O)C[C@@]21C (some centres unmarked) [Form II, halobetasol propionate Form II]	–	temperature to which heated without converting to another crystalline or amorphous form and without significant decomposition (heating): ≤ 200 °C; transitions upon heating to melting temperature (hot stage microscopy): no detectable transitions
CCC(=O)O[C@]1(C(=O)CCl)[C@@H](C)CC2[C@@H]3C[C@H](F)C4=CC(=O)C=C[C@]4(C)[C@@]3(F)[C@@H](O)C[C@@]21C (some centres unmarked) [Form III, halobetasol propionate Form III]	160 °C	–
CCC(=O)O[C@]1(C(=O)CCl)[C@@H](C)CC2[C@@H]3C[C@H](F)C4=CC(=O)C=C[C@]4(C)[C@@]3(F)[C@@H](O)C[C@@]21C (some centres unmarked) [Form IV, halobetasol propionate Form IV]	120–130 °C	temperature of solid-solid phase transition under vacuum (heating under vacuum for about an hour or two): about 60 °C
CCC(=O)O[C@]1(C(=O)CCl)[C@@H](C)CC2[C@@H]3C[C@H](F)C4=CC(=O)C=C[C@]4(C)[C@@]3(F)[C@@H](O)C[C@@]21C (some centres unmarked) [Form V, halobetasol propionate Form V]	about 90 °C	–
CCC(=O)O[C@]1(C(=O)CCl)[C@@H](C)CC2[C@@H]3C[C@H](F)C4=CC(=O)C=C[C@]4(C)[C@@]3(F)[C@@H](O)C[C@@]21C (some centres unmarked) [Form VI, halobetasol propionate Form VI]	150–170 °C	–
